{
  "source": "patent US11571485B2",
  "about": "“Peptides and antibodies for detecting changes in alzheimer's disease brain and methods of use thereof” (Sanford Burnham Prebys Medical Discovery Institute, priority 2016, dated 2023)",
  "key": {"[1]": {"tested_on": "hAPP-J20 mouse brain (hippocampus)", "experimental": "The synthetic peptides were labeled with FAM and 100 nmol and were intravenously injected to 9-month old AD mice through the tail vein. The peptides were allowed to circulate for 30 min, after which the mice were perfused with 20 ml of PBS, the brains were collected and snap-frozen in OCT for sectioning. The peptides were detected by anti-FAM staining (green), nuclei were stained with DAPI (blue), and anti-CD31 was used to visualize blood vessels.\nFor peptide homing, mice were intravenously injected with 50 nmole peptide dissolved in PBS, and allowed to circulate for 30 min. Mice were then perfused intracardially with saline and all major organs were isolated and fixed in 4% paraformaldehyde (PFA) at pH 7.4 overnight. The organs were then washed with PBS and placed in graded sucrose solutions overnight before optimal cutting temperature compound (OCT) embedding. Ten-micro-meter-thick sections were cut and analyzed by immunostaining.\nFrozen sections were permeabilized using PBS- 0.2% Triton™ X-100 (PBST), blocking was carried out using blocking buffer (5% BSA, 1% goat serum, 1% donkey serum in PBST. Primary antibodies were incubated in diluted (1%) blocking buffer overnight at dilutions 1/100 or 1/200 at 4° C., washed with PBST and incubated with secondary antibodies diluted 1/200 or 1/500 in 1% diluted buffer for 1 hour at room temperature, subsequently washed with PBST, counterstained with DAPI 1 μg/mL in PBS for 5 minutes, washed with PBS, mounted using aqueous mounting media (Vector Biolabs), and imaged using a confocal microscope (Zeiss LSM-710)."}, "[2]": {"tested_on": "P13 model of angiogenic glioblastoma", "assay": "In vivo homing in P13 glioblastoma model", "design": "species or system mouse", "conditions": "systemically injected", "description": "All animal experiments were conducted under an approved protocol of the Institutional Animal Care and Use Committee of Sanford Burnham Prebys Medical Discovery Institute. The following transgenic mouse models were used for peptide homing studies—hAPP-J20 ([…], Nature genetics 1, 345-347 (1992)), Tg2576 (Jacobsen et al., Proc Natl Acad Sci USA 103, 5161-5166 (2006)), and mTHY-1-α-synuclein model (Chesselet et al., Neurotherapeutics 9, 297-314 (2012)). The P13 glioblastoma model is a patient-derived orthotopic xenograft model (Bougnaud et al., Oncotarget, (2016)). Spheroids were cultured as described previously (Bjerkvig et al., J Neurosurg 72, 463-475 (1990)). After two weeks in culture, spheroids (volume 2.5 μl) were stereotactically implanted into the brains of nude mice. Mice were used approximately 6 weeks after tumors were induced, when mice started presenting neurological symptoms. The acute brain injury model was setup as previously described (Mann et al., Nature communications 7, 11980 (2016)). Briefly, 8 to 10 week-old male BL6 mice were anaesthetized with 4% isoflurane in 70% N2O and 30% O2, and a 5-mm craniotomy was performed using a portable drill and a trephine over the right parietotemporal cortex using a stereotactic frame. […]"}, "[3]": {"target": "albumin (BSA) (Bos taurus, UniProt P02769)", "sequence (P02769 25-607)": "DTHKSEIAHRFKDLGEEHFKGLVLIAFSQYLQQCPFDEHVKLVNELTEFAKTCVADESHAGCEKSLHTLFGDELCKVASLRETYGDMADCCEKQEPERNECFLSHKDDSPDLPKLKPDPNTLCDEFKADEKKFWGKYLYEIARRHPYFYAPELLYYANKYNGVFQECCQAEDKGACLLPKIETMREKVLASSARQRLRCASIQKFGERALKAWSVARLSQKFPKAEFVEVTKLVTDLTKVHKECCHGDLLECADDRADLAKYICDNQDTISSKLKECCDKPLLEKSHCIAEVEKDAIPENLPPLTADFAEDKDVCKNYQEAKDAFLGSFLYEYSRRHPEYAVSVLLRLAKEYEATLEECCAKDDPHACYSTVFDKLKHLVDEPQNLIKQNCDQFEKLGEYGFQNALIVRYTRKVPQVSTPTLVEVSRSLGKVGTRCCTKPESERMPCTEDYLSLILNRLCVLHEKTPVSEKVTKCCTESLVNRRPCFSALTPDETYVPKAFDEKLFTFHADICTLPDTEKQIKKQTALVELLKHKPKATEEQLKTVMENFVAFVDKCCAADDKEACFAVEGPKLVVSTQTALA", "assay": "ELISA binding to control protein"}, "[4]": {"tested_on": "human iPS cell-derived endothelial cells (ECs) from an AD patient", "assay": "AgNP binding to hiPSC-derived brain endothelial cells", "assay_type": "cell-based", "excerpt": "Human iPS cell-derived from an AD patient and from a normal individual were differentiated into endothelial cells and the cultured cells were used in an overlay assay with DAG-coated and control AgNP.\nThe details of human induced pluripotent stem cells (hiPSCs) derived from Alzheimer disease patients with APP duplication, and non-demented control individuals, are described previously (Israel et al., Nature 482, 216-220 (2012)). These hiPSCs were extensively characterized and have been established as an excellent human model for AD. An additional AD hiPSC line generated from dermal fibroblasts from an individual harboring a Presenilinl (PSEN1) mutation (Coriell Institute, Cat #AG06840) was used to further validate the results from the APP lines. hiPSCs were routinely maintained on mouse embryonic fibroblast as described before (Lin et al., Nat Methods 6, 805-808 (2009); Talantova et al., Proc Natl Acad Sci USA 110, E2518-2527 (2013)). Brain microvascular endothelial cells differentiation of hiPSCs was performed using a previously described protocol (Lippmann et al., Nature biotechnology 30, 783-791 (2012), with minor modifications. Briefly, feeder-free cultures of hiPSCs were allowed to spontaneously differentiate in the absence of bFGF for 5-7 days, and then transferred to Endothelial cell (EC) medium composed of human Endothelial Serum-Free Medium™ (Invitrogen) supplemented with 20 ng/ml bFGF and 1% platelet-poor plasma-derived bovine serum (PDS; Biomedical Technologies). After 1-2 days the cells were dissociated with dispase (2 mg/ml) and were plated on 12 well plates coated with a mixture of collagen IV (400 μg/ml) and fibronectin (100 μg/ml). Cells were then cultured in EC medium until they reached confluence, after which they were split and expanded to near 100% purity. BBB-type EC identity was confirmed by flow cytometry or double immunoreactivity to the hallmark efflux transporter p-glycoprotein and other EC markers (CD31, GLUT-1, PECAM, Occludin, and Claudin-5). Furthermore, the capability of these cells to make functional tight junctions and polarized efflux activity was validated using a dual chamber efflux transport assay as described before.\nCell binding experiments on U251 cells and hiPSCs were with done using peptide conjugated AgNP. U251 cells were cultured in a 96-well plate. The cells were blocked with 200 μl of 10% FCS in HBSS (Hanks' Balanced Salt Solution from Gibco) for 30 min at 37° C. Following that, DAG-AgNPs (0.5 nM concentration diluted in HBSS) alone or in the presence of free non-labeled peptide (200 μM) were incubated on the cells for 1 hour at 37° C. After washing the unbound AgNP with HBSS three times, the plates were imaged with fluorescent microscopy by looking at intrinsic emission from the FAM tag on the peptide. hiPSCs were cultured in 48 well plate and similar protocol as described above was followed, with the exception that AgNP concentration for incubation was kept at 0.15 nM. Nanoparticle binding was quantified from fluorescence micrographs using ImageJ™ software."}, "[5]": {"tested_on": "hAPP-J20 mouse brain sections", "assay": "Tissue section overlay of FAM-labeled peptides on mouse brain sections", "assay_type": "binding", "conditions": "hAPP-J20 vs age-matched wild-type mice, hippocampal region", "description": "PFA fixed sections were incubated in PBS for 10 minutes, followed by PBS-Triton-x-100 (0.2%) for 10 minutes. Sections were rinsed with PBST, mounted in a slide holder, and subsequently washed with PBS-T during 12 minutes. Slides were blocked with blocking buffer for 60 minutes at room temperature. Then, peptides were incubated at a concentration of 10 μg/mL dissolved in concentrated blocking buffer, for three hours at room temperature. Sections were then washed with three 4-minute washes of PBS-T, and subsequently fixed with PFA for 10 minutes, followed by three 3-minute washes with PBS-T. Sections were then incubated with primary antibody at 1/200 in diluted blocking buffer overnight at 4° C. Later, sections were washed with three 4-minute washes with PBS-T. Slides were then incubated with secondary antibody at 1/200 dilution in diluted blocking buffer for 30 minutes at room temperature, followed by three 4-minute washes of PBS-T. Sections were then counterstained with DAPI for 5 minutes, washed with PBS-T and mounted."}},
  "note": "“Also recorded” adds a separate entry of the source.",
  "data": [
    {"sequence": "CDAGRKQKC", "values": [
      {"measurement": "Homing in early-stage AD", "setting": "[1]; 3-4 month old hAPP-J20 mice, i.v., 30 min", "result": "Robust DAG homing in young hAPP-J20 animals was observed, mostly in the cerebrocortex and the hippocampus"},
      {"measurement": "Cellular localization in brain", "setting": "[1]; DAG-injected hAPP-J20 mice, anti-GFAP and anti-Aβ staining", "result": "accumulated within a subpopulation of GFAP-positive hypertrophic astrocytes surrounding the Aβ plaques"},
      {"measurement": "Accumulation in other organs", "setting": "[1]; mouse, in vivo, iv", "result": "little if any accumulation of the peptide in other organs of the hAPP-J20 mouse except for kidney"},
      {"measurement": "Tumor homing", "setting": "[2]", "result": "Strong tumor homing"},
      {"measurement": "Binding to control protein (BSA)", "setting": "[3]", "result": "only minimal binding to a control protein (BSA)"},
      {"measurement": "Binding to AD patient iPS cell-derived endothelial cells", "setting": "[4]; AD patient vs normal donor cells", "result": "recognizes endothelial cells differentiated from AD iPS cells and not cells prepared similarly from a control individual"},
      {"measurement": "Binding to hiPSC-derived BMECs from non-demented individual", "setting": "[4]; control cells", "result": "did not bind to hiPSC-derived BMECs from a non-demented individual"},
      {"measurement": "Ex vivo peptide binding to brain sections", "setting": "[5]", "result": "bound to a much greater degree in the hippocampal region of hAPP-J20 mice than to age-matched wild-type mice; also recorded: far stronger than DAG binding to WT brain"}
    ]}
  ]
}
